Experiment: Stability of dosing solutions of compound of formula (2) stored at 25° C. (Example 11)
Format: physicochemical
Experimental: A series of dosing solutions of the compound of formula (2) for IV administration was assessed. The selected concentrate of compound of formula (2), prepared at 30 mg/mL in a vehicle of 30% CAPTISOL® at pH 4.0, was evaluated at low, mid, and high concentrations (0.1, 1 and 5 mg/mL, respectively) upon dilution into various dosing solutions. For dilution of the compound of formula (2) to 0.1 and 1 mg/mL, three dosing solutions were evaluated; 1) D5W, 2) D5W with 5 mM K-phosphate (pH=6), and 3) D5W with 20 mM K-phosphate (pH=6). To maintain iso-osmolality for dilutions of the compound of formula (2) to 5 mg/mL, the concentration of dextrose in the dosing solutions was reduced to 2.5% (w/v). Thus, the dosing solutions evaluated were; (1) D2.5W, (2) D2.5W with 5 mM K-phosphate (pH=6), and (3) D2.5W with 20 mM K-phosphate (pH=6).
The potential dosing solutions were assessed for visual appearance, pH, osmolality, and concentration and purity by HPLC (XBridge Phenyl Column (Waters); UV absorbance detector at 272 nm; mobile phase a step gradient of aqueous acetonitrile containing 0.1% (v/v) formic acid) after approximately 0, 16, 24, and 48 hours of storage at 25° C. […] In addition, the known degradant, the compound of formula (101), formed by release of the active HNO group, was observed after 16 hours at 25° C. in small quantities by HPLC in the dosing solutions containing phosphate buffer. […]

CS(=O)(=O)c1cccc(S(=O)(=O)NO)c1 [Compound 2, N-Hydroxy-3-methanesulfonylbenzene-1-sulfonamide]
osmolality (1 mg/mL in D5W with 20 mM phosphate): approximately 350 mOsm/kg | visual appearance (5 mg/mL in D2.5W with 5 mM phosphate (pH 6.0), after 48 hours at 25° C.): clear, light yellow
